The target of this assay is Serine/threonine-protein phosphatase 5 (Homo sapiens) (UniProt P53041). Description: PP5 phosphatase inhibitor potency, late-stage follow-up, biochemical, OMFP substrate, fluorescence, round 5, 1 µM low dose (AID 624448). Particulars: purified PP5c, OMFP dephosphorylation.

Activity calls are given as the source filed them.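 The calls were made as follows: active = PP5 phosphatase activity cut by at least half at the top 100 µM dose; inactive = less than half inhibition at 100 µM.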

These results are taken from PubChem BioAssay AID624448 (The Scripps Research Institute Molecular Screening Center, 2012).

By IC50 is commonly meant the concentration that gives 50% inhibition.

Sequence of Serine/threonine-protein phosphatase 5 (Homo sapiens) (P53041 whole entry, looked up): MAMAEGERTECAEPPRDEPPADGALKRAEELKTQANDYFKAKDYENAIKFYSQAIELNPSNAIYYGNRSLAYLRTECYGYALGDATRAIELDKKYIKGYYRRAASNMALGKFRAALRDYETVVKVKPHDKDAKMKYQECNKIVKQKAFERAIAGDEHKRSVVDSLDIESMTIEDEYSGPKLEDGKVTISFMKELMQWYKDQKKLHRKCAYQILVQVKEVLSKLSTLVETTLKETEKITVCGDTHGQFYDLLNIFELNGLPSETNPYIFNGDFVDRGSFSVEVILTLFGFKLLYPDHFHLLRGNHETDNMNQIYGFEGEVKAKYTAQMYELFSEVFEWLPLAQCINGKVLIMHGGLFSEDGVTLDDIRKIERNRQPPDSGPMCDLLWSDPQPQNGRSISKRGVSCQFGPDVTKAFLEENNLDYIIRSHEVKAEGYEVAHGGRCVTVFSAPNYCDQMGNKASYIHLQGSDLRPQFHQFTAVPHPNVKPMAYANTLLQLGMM

On to `Cc1n[nH]nc1C(=O)O`, for which the IC50 was > 100 µM (inactive).

In the case of `O=C(O)c1cn[nH]n1`, the IC50 is > 100 µM (inactive).

For the molecule `O=C(O)c1ncn[nH]1`, the IC50 is > 100 µM (inactive).

On to `COC(=O)c1n[nH]nc1-c1ccccc1`, for which the IC50 is > 100 µM (inactive).

Turning to `O=C(O)c1nn(Cc2ccccc2)nc1Cl`, the IC50 was > 100 µM (inactive).

Take `O=C(O)c1cn(Cc2ccccc2)nn1`: the IC50 was > 100 µM (inactive).

As to `O=C(O)c1nnn(-c2ccccc2)c1-c1ccccc1`, the IC50 was > 100 µM (inactive).

For the molecule `O=C(O)c1cn[nH]c1-c1ccccc1`, the IC50 was > 100 µM (inactive).
